Results: publication PMC9595134, “Novel pituitary actions of GnRH in teleost: The link between reproduction and feeding regulation” (Frontiers in Endocrinology, 2022)
Where a SMILES comes first, the peptide text is derived from it. [ ]: non-standard residue; d: D form. pGlu = O=C1CC[C@@H](C(=O)O)N1

Columns and labels:
[1] = tested on: grass carp pituitary cells; assay: qRT-PCR of reproductive hormone genes in pituitary cells; type: cell-based, grass carp (Ctenopharyngodon idellus)
Experimental: (§1) The preparation of grass carp pituitary cells was performed as mentioned above. After drug treatment, the total RNA of these cells was isolated by TRIzol reagent and reverse transcribed into cDNA with Hifair™ III 1st Strand cDNA Synthesis Kit. The transcript levels of several anorectic peptides (POMCb, CART2, UTS1, NMBa, NMBb, and Lepr) and reproductive genes (GtHα, LHβ, FSHβ, INHBa, SgII, DRD2) were detected by using an ABI 7500 quantitative real-time PCR (qRT-PCR) system (Biosystems, USA) (information of primers for target genes is listed in Supplementary Table S3 ). In this process, a serial gradient dilution of plasmid DNA of these genes was used as a standard for data calibration. The conditions of qRT-PCR were set to 10 min, 95°C, for pre-degeneration; 15 s, 95°C, for degeneration; 30 s, 55°C–60°C, for annealing; 30 s, 72°C, for extending; and 20 s, 82°C, for signal detection with 40 cycles. Finally, the melt curve obtained through each test was used to verify and check the reliability and specificity of the corresponding qRT-PCR.
(§2) The transcript level was detected using qRT-PCR by ABI 7500 software, while the data calibration of each reaction was performed through standard curves with the dynamic range of 10^5 and correlation coefficient >0.95. The transcript level of β-actin was used as an internal control, and target gene mRNA expression was normalized and calculated as a percentage of the mean value (as “% Ctrl”). Based on merging four to eight replicates (as mean ± SEM), the data were analyzed with a one-way ANOVA to differentiate the significant differences from other treatment experiments. The SPSS Statistics 26.0 software was used to do a Dunnett’s post-hoc test. […] The different letters represent a significant difference at p < 0.05 between groups.
To further verify the reproductive function of GnRHs, time- and dose-dependent tests were performed to detect GnRH2- or GnRH3-regulated GtHα, LHβ, FSHβ, INHBa, SgII, and DRD2 mRNA expression in grass carp pituitary cells. […] In the dose-dependent test, a continuous gradient dilution of GnRH2 (0.1–1,000 nM) or GnRH3 (0.1–1,000 nM) was incubated with grass carp pituitary cells for 24 h.
Figure 5 Regulation of reproductive hormone gene mRNA expression by GnRH2 and GnRH3 in grass carp pituitary cells. (A) Time-course experiment of grass carp GnRH2 (1 μM) and GnRH3 (1 μM) on GtHα, LHβ, FSHβ, INHBa, SgII, and DRD2 mRNA expression in grass carp pituitary cells. (B) Dose dependence of a 24-h treatment with increasing levels of GnRH2 and GnRH3 (0.1–1,000 nM) on GtHα, LHβ, FSHβ, INHBa, SgII, and DRD2 mRNA expression in grass carp pituitary cells. After drug treatment, the pituitary cells were extracted to total RNA, reversed transcribed, and used for RT-PCR to detect the target genes’ mRNA expression. […] The different letters represent a significant difference at p < 0.05 between groups (ANOVA followed by a Dunnett test).

[2] = tested on: grass carp pituitary cells; assay: qRT-PCR of anorectic genes in pituitary cells; type: cell-based, grass carp (Ctenopharyngodon idellus)
Experimental: as §1, §2
To further verify the functional role of GnRH2 and GnRH3 on feeding regulation, time- and dose-dependent tests were performed to detect the effect of GnRH2 and GnRH3 on anorectic gene (POMCb, CART2, UTS1, NMBa, NMBb, and LEPR) mRNA expression. In the time-course test, the grass carp pituitary cells were incubated by GnRH2 or GnRH3 (1 μM) for 3, 6, 12, and 24 h, respectively. […] In the dose-dependent test, grass carp pituitary cells were incubated by the continuous gradient dilution of GnRH2 or GnRH3 (0.1–1,000 nM) for 24 h.
Figure 9 Regulation of feeding hormone gene mRNA expression by GnRH2 and GnRH3 in grass carp pituitary cells. (A) Time-course experiment of grass carp GnRH2 (1 μM) and GnRH3 (1 μM) on POMCb, CART2, UTS1, NMBa, NMBb, and LEPR mRNA expression in grass carp pituitary cells. (B) Dose dependence of a 24-h treatment with increasing levels of GnRH2 and GnRH3 (0.1–1,000 nM) on POMCb, CART2, UTS1, NMBa, NMBb, and LEPR mRNA expression in grass carp pituitary cells. […]

zebrafish = conditions: intracerebroventricular (ICV) injection, ref [38]; cited from earlier work
goldfish [3] = conditions: intracerebroventricular (ICV) injection, ref [39]; cited from earlier work
goldfish [4] = tested on: goldfish; set-up: method as in PMID 7507838, PMID 8045371; conditions: ref [34], [35], cited from earlier work
pituitary = conditions: teleost; ref [5], [10]; cited from earlier work
Excerpt: Subsequently, GnRH2 had been firstly found in chicken so that this variant was also named as chicken GnRH (cGnRH) ([3]). In addition, the third GnRH variant (GnRH3) was an ubiquitous and unique subtype existing in fish ([3]), which was primitively discovered in salmon so that it was named as salmon GnRH (sGnRH) ([4]). Multiple GnRH variants (two or three forms) are present in all teleosts ([5]), but the receptor selectivity a ...

[5] = 1 μM, time-dependent, Figure 5A

NC(=O)CNC(=O)[C@@H]1CCCN1C(=O)[C@H](Cc1ccc(O)cc1)NC(=O)[C@H](Cc1c[nH]c2ccccc12)NC(=O)CNC(=O)[C@H](Cc1c[nH]cn1)NC(=O)[C@H](CO)NC(=O)[C@H](Cc1c[nH]c2ccccc12)NC(=O)[C@H](Cc1c[nH]cn1)NC(=O)[C@@H]1CCC(=O)N1 [GnRH2] ([pGlu]HWSHGWYPG-NH2)
effect on DRD2 mRNA expression, time course [1, 5]: inhibit | effect on GtHα, LHβ, FSHβ, INHBa, and SgII mRNA expression, time course [1, 5]: significantly induce | effect on DRD2 mRNA expression, dose test ([1]; 0.1–1,000 nM (all treated doses), 24 h, Figure 5B): significantly inhibit | effect on GtHα, LHβ, FSHβ, INHBa, and SgII mRNA expression, dose dependence ([1]; 0.1–1,000 nM, 24 h, dose-dependent, Figure 5B): significantly induce | effect on POMCb, CART2, UTS1, NMBa, NMBb, and LEPR mRNA expression, time course ([2]; 1 μM, 3, 6, 12, and 24 h, time-dependent, Figure 9A): significantly induce | effect on POMCb, CART2, UTS1, NMBa, NMBb, and LEPR mRNA expression, dose dependence ([2]; 0.1–1,000 nM, 24 h, dose-dependent, Figure 9B): significantly induce | effect on food intake, zebrafish (zebrafish): significantly decrease food intake | effect on food intake, goldfish (goldfish [3]): significantly decrease food intake | LH secretion compared to GnRH3 (goldfish [4]; sexually mature, pre-spawning fish): more robust LH secretion | LH-releasing activity (goldfish [4]; sexually regressed animals): no effect | effect on LH and FSH secretion in the pituitary (pituitary): could stimulate
